This passage reports logP and 1-octanol/water partition coefficient results from patent US9670374B2, “Water-based ink for inkjet printing” (KAO CORPORATION, priority 2013, dated 2017).

One data set can be described thus: Measurement of 1-octanol/water partition coefficient (shake flask method). The class given is physicochemical.
Details: not given
The protocol:
The 1-octanol/water partition coefficient of the diethylene glycol isopropyl ether was measured by a shake flask method prescribed in JIS Z7260-107.
First, 10 g of ion-exchanged water and 10 g of 1-octanol were charged into a 50 mL separating funnel, and shaken at 25° C. to establish an equilibrium therebetween. Then, 1 g of diethylene glycol isopropyl ether was charged into the separating funnel, and the contents of the separating funnel were intimately shaken and subjected to centrifugal separation to separate the mixture into a 1-octanol phase and a water phase. The amounts of the diethylene glycol isopropyl ether dissolved in the respective phases were quantitatively determined by gas chromatography, thereby obtaining a partition coefficient of the diethylene glycol isopropyl ether between the two phases. The log P vale was determined as a common logarithm of the partition coefficient.
The same measurement procedure as in the above item (i) was repeated except for using a solvent to be measured in place of the diethylene glycol isopropyl ether (c1), thereby obtaining a 1-octanol/water partition coefficient of the solvent.
In the case of `O=C1CCCN1` [2-pyrrolidone], the logP was -0.63.
As to `CCCCOCCOCCO` [Diethylene glycol monobutyl ether], the 1-octanol/water partition coefficient result is listed as “ether (0.7)”.
For `OCC(O)CO` [glycerol], the 1-octanol/water partition coefficient entry is listed as “Glycerol (≧−1.5)” and the logP was -1.5.
Regarding `CC(O)CO` (stereo not shown) [propylene glycol], the 1-octanol/water partition coefficient result is “Propylene glycol (−0.95)” and the logP was -0.95.
For `OCCOCCOCCO` [triethylene glycol], the 1-octanol/water partition coefficient result was “Triethylene glycol (−1.45)” and the logP was -1.45.

The same data set, now with this note: 1-octanol/water; shake flask method JIS Z7260-107, 25° C.; log P as common logarithm; read-out: 1-octanol/water partition coefficient.
As to `CC(C)OCCOCCO` [diethylene glycol isopropyl ether], the logP was found to be 0.04.
Still for that read-out and setting: to `CCOCCOCCO` [diethylene glycol monoethyl ether, Diethylene glycol monoethyl ether] belongs -0.31.

Still in this data set, the particulars now being: shake flask method JIS Z7260-107, 25° C.; log P as common logarithm.
Consider `CC(C)OCCOCCO` [diethylene glycol isopropyl ether], for which the 1-octanol/water partition coefficient result is reported as “DEGPE (0.04)*^1”.
Same read-out and setting: to `CCOCCOCCO` [diethylene glycol monoethyl ether, Diethylene glycol monoethyl ether] belongs “DEGEE (−0.31)”; to `COCCOCCO` [diethylene glycol monomethyl ether, Diethylene glycol monomethyl ether], “DEGME (−0.85)”.
The same measure, in the same setting: to `OCCOCCO` [diethylene glycol] belongs “Diethylene glycol (−1.39)”.

Still in this data set, the particulars now being: shake flask method JIS Z7260-107, 25° C.; log P as common logarithm; read-out: 1-octanol/water partition coefficient.
As for `COCCOCCO` [diethylene glycol monomethyl ether, Diethylene glycol monomethyl ether], the logP is -0.85.
Same read-out and setting: next, `OCCOCCO` [diethylene glycol]: -1.39.
